In PubChem BioAssay (NCI):
Several values for one entry are separate records, joined by “and”; a condition that tells them apart may be missing. Identical values can stand only once.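 Exposure lasted 48 hours, with cells grown in 96-well plates and compounds tested at five concentrations. GI50 marks 50% less growth. TGI: total growth inhibition.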

Legend:
Experiment in all cases: NCI-60 cell line screen, 48 h
UACC-257 melanoma = tested on: UACC-257 melanoma
MDA-MB-435 = tested on: MDA-MB-435
EKVX NSCLC = tested on: EKVX NSCLC
SNB-75 CNS = tested on: SNB-75 CNS
MDA-N = tested on: MDA-N
SK-MEL-28 melanoma = tested on: SK-MEL-28 melanoma
HOP-62 NSCLC = tested on: HOP-62 NSCLC
CCRF-CEM leukemia = tested on: CCRF-CEM leukemia
MOLT-4 leukemia = tested on: MOLT-4 leukemia
NCI-H522 lung = tested on: NCI-H522 lung

Row | SMILES | TGI (UACC-257 melanoma) [µM] | TGI (MDA-MB-435) [µM] | TGI (EKVX NSCLC) [µM] | TGI (SNB-75 CNS) [µM] | TGI (MDA-N) | TGI (SK-MEL-28 melanoma) [µM] | TGI (HOP-62 NSCLC) [µM] | TGI (CCRF-CEM leukemia) | TGI (MOLT-4 leukemia) | TGI (NCI-H522 lung) | GI50 (MDA-MB-435) [µM] | GI50 (MDA-N) [µM] | GI50 (HOP-62 NSCLC) [µM] | GI50 (CCRF-CEM leukemia) [µM] | GI50 (MOLT-4 leukemia) [µM] | GI50 (NCI-H522 lung) [µM]
1 | COc1cc(S(=O)(=O)Nc2ccc(-c3csc(N4C(=O)C(Cl)C4c4ccccc4O)n3)cc2)ccc1Cl (configuration not stated) | 88.6 | > 100 | > 100 | > 100 | > 100 µM | > 100 | > 100 | 9.13 µM | 41.7 µM | 3.48 µM | – | – | – | – | – | –
2 | CCOC(=O)CCc1cn2cc(Br)nc(OC)c2n1 | > 100 | 26 | > 100 | > 100 | 12.6 µM | > 100 | > 100 | > 100 µM | > 100 µM | > 100 µM | – | – | – | – | – | –
3 | Oc1ccc(Cl)cc1-c1cc(-c2ccccc2)nc(=S)[nH]1 | > 100 | > 100 | > 100 | 59.2 | > 100 µM | > 100 | 46.9 | > 100 µM | > 100 µM | > 100 µM | – | – | – | – | – | –
4 | Cn1c2ccc(Cl)cc2c2ccc3c(c21)C(=O)C=CC3=O | > 10 | > 10 | > 10 | > 10 | > 10 µM | > 10 | > 10 | > 10 µM | > 10 µM | > 10 µM | – | – | – | – | – | –
5 | CSc1nnc(SCc2nn3c(=O)cc(C)nc3s2)s1 | > 100 | > 100 | > 100 | > 100 | > 100 µM | > 100 | > 100 | > 100 µM | > 100 µM | > 100 µM | – | – | – | – | – | –
6 | C=C(Br)C[N+]12CN3CN(CN(C3)C1)C2 | > 100 | > 100 | > 100 | > 100 | > 100 µM | > 100 | > 100 | > 100 µM | > 100 µM | > 100 µM | – | – | – | – | – | –
7 | COc1cccc(NC(=O)CC(=O)n2nc(-c3ccccc3)c(N=Nc3ccc(Cl)cc3)c2-c2ccccc2)c1 | > 100 | > 100 | 92.8 | > 86.9 | > 100 µM | > 100 | 90.9 | > 39.6 µM | > 59.3 µM | 59.8 µM | – | – | – | – | – | –
8 | CCCC1=C(OC)C(=O)c2c(C)cc(Cl)nc2C1=O | 19.7 | 3.45 | 20.7 | 20.1 | 3.33 µM | 16.7 | 29.9 | 2.77 µM | 3.72 µM | 8.06 µM | – | – | – | – | – | –
9 | Cc1cc2c(c(C(=O)NCC(=O)O)c1)Oc1c(cc(C)cc1C(=O)NCC(=O)O)S2 | > 100 | > 100 | > 100 | > 100 | > 100 µM | > 100 | > 100 | > 100 µM | > 100 µM | > 100 µM | – | – | – | – | – | –
10 | O=C1C(N2CCN(CCOCCO)CC2)=C(Cl)C(=O)c2ncccc21 | 39.9 | – | 35.1 | > 100 | 3.76 µM and 35 µM | 43.7 | > 100 | 4.44 µM and 35.9 µM | 5.15 µM and 31.4 µM | 4.22 µM and 32.6 µM | 18.5 | 19.4 | > 100 | 13.5 | 9.63 | 17.7
11 | C=C(CN(CC)CC)C1(c2ccccc2)CC2(CCCC2)C(=O)O1 (configuration not stated) | 98.9 | > 100 | > 100 | 92.6 | > 100 µM | > 100 | > 100 | > 100 µM | > 100 µM | > 100 µM | – | – | – | – | – | –
12 | O=C1c2ccccc2C2(c3ccc(F)cc3)NCCN12 (configuration not stated) | > 100 | > 100 | > 100 | > 100 | > 100 µM | > 100 | > 100 | > 100 µM | > 100 µM | > 100 µM | – | – | – | – | – | –
13 | Cc1cc2nc3ccccc3n2c2ccccc12 | > 10 | > 10 | > 10 | > 10 | > 10 µM | > 10 | > 10 | > 10 µM | > 10 µM | > 10 µM | – | – | – | – | – | –
14 | Cc1cc(S(=O)(=O)Nc2nc3cscc3c(=O)n2N)c(S)cc1Cl | > 100 | > 100 | > 100 | 58.5 | > 100 µM | > 100 | > 100 | > 100 µM | > 100 µM | 77.9 µM | – | – | – | – | – | –
15 | CC(OP(=O)(O)O)C(N)C(=O)O (configuration not stated) | > 100 | > 100 | > 100 | > 100 | > 100 µM | > 100 | > 100 | > 100 µM | > 100 µM | > 100 µM | – | – | – | – | – | –
16 | CC(=O)/C=C/c1ccccc1 | > 100 | 68.3 | > 100 | > 100 | 91.9 µM | > 100 | 93.9 | > 100 µM | > 100 µM | 32.6 µM | – | – | – | – | – | –
17 | O=C1C=CC(=O)c2c(O)c(N3CCOCC3)c(Cl)c(O)c21 | 0.911 | 0.406 | 2.79 | 2.04 | 0.396 µM | 0.786 | 2.36 | > 10 µM | > 2.13 µM | 0.83 µM | – | – | – | – | – | –
18 | CCOC(=O)c1c(N2CCCC2)[nH]c(=O)c(C(c2ccc(N(C)C)cc2)c2c(O)c(C(=O)OCC)c(N3CCCC3)[nH]c2=O)c1O | > 100 | > 100 | > 100 | > 100 | > 100 µM | > 100 | > 100 | > 100 µM | > 100 µM | > 100 µM | – | – | – | – | – | –
19 | CCOc1ccc2nc3nc(=O)[nH]c(C)c3c(NC(C)(CO)CO)c2c1 | > 100 | > 100 | > 100 | > 100 | > 100 µM | > 100 | > 100 | > 100 µM | > 100 µM | > 100 µM | – | – | – | – | – | –
20 | Nc1ccc2c(=O)cc(-c3ccc(Br)s3)[nH]c2n1 | > 100 | 1.39 | > 100 | > 28.6 | 1.29 µM | > 100 | > 100 | > 100 µM | 13.2 µM | > 23.1 µM | – | – | – | – | – | –
21 | O=c1cc(-c2ccccc2)oc2c1ccc1[nH]c3ccccc3c(=O)c12 | > 100 | > 100 | > 100 | > 100 | > 100 µM | > 100 | > 100 | > 100 µM | > 100 µM | > 100 µM | – | – | – | – | – | –
22 | COc1cc2c3c(n(C)c(=O)c2cc1OC)-c1cc2c(cc1/C3=C\CCCCCBr)OCO2 | > 100 | > 100 | > 100 | 43 | > 100 µM | 3.24 | 25.1 | 38.3 µM | 10.5 µM | 52.4 µM | 19.2 | – | 3.09 | – | – | –
23 | O=C1Nc2cccc(Cl)c2/C1=C\c1c(-c2ccccc2)nc2n1CCS2 | 51.4 | 36.5 | 74.7 | 66.8 | 40.6 µM | 44.7 | 66.1 | 33.1 µM | 39.4 µM | > 100 µM | – | – | – | – | – | –
24 | COC(=O)C1C(=O)CC(C)(O)C(C(=O)OC)C1c1ccc(N(C)C)cc1 (configuration not stated) | > 100 | > 100 | > 100 | > 100 | > 100 µM | > 100 | > 100 | > 100 µM | > 100 µM | > 100 µM | – | – | – | – | – | –
25 | O=c1c2ccccc2nc(N/N=C/c2ccc([N+](=O)[O-])cc2)n1-c1ccccc1 | > 100 | > 100 | 79.6 | 56.7 | > 100 µM | 30.1 | 67.5 | > 100 µM | > 100 µM | > 100 µM | – | – | – | – | – | –
26 | c1ccc2c(Nc3ncco3)cccc2c1 | > 10 | > 10 | > 10 | > 10 | > 10 µM | > 10 | > 10 | > 10 µM | > 10 µM | > 10 µM | – | – | – | – | – | –
27 | CCOC(=O)C1CCC(=O)N1C(=O)c1cccc(Cl)c1 (configuration not stated) | > 100 | > 100 | > 100 | > 100 | > 100 µM | > 100 | > 100 | > 100 µM | > 100 µM | > 100 µM | – | – | – | – | – | –
